Results reported in the NIST ThermoML archive (doi:10.1016/j.jct.2018.04.018).
Where “and” joins values, the source holds several entries; their conditions need not be identical. Equal entries are not always repeated.

Conditions: 101.33 kPa, Liquid; for speed of sound: Single path-length method; for mass density: Vibrating tube method

CCCCCCCC[n+]1ccn(C)c1.F[P-](F)(F)(F)(F)F [1-octyl-3-methylimidazolium hexafluorophosphate]
Conditions	viscosity
332.11 K, Cone and plate viscometry	101.6 mPa·s
332.85 K, Cone and plate viscometry	99.6 mPa·s and 99.3 mPa·s
333.15 K, Concentric cylinders viscometry	98.3 mPa·s
333.59 K, Cone and plate viscometry	95.7 mPa·s and 96 mPa·s
334.34 K, Cone and plate viscometry	92.5 mPa·s
334.35 K, Cone and plate viscometry	93 mPa·s
335.07 K, Cone and plate viscometry	89.7 mPa·s
335.09 K, Cone and plate viscometry	89.6 mPa·s
335.82 K, Cone and plate viscometry	86.7 mPa·s and 86.8 mPa·s
336.57 K, Cone and plate viscometry	84.1 mPa·s
337.31 K, Cone and plate viscometry	81.6 mPa·s and 81.7 mPa·s
338.05 K, Cone and plate viscometry	79.3 mPa·s
338.06 K, Cone and plate viscometry	78.8 mPa·s
338.79 K, Cone and plate viscometry	76.6 mPa·s
338.81 K, Cone and plate viscometry	76.2 mPa·s
339.54 K, Cone and plate viscometry	73.9 mPa·s and 74.2 mPa·s
340.28 K, Cone and plate viscometry	72 mPa·s
340.29 K, Cone and plate viscometry	71.9 mPa·s
341.03 K, Cone and plate viscometry	70 mPa·s
341.04 K, Cone and plate viscometry	69.8 mPa·s
341.77 K, Cone and plate viscometry	68 mPa·s and 68.1 mPa·s
342.51 K, Cone and plate viscometry	66.1 mPa·s and 66.6 mPa·s
343.15 K, Concentric cylinders viscometry	64.9 mPa·s
343.25 K, Cone and plate viscometry	64.1 mPa·s and 63.9 mPa·s
344 K, Cone and plate viscometry	62.2 mPa·s and 62 mPa·s
344.73 K, Cone and plate viscometry	60.4 mPa·s
344.76 K, Cone and plate viscometry	60.4 mPa·s
345.48 K, Cone and plate viscometry	58.8 mPa·s
345.51 K, Cone and plate viscometry	58.8 mPa·s
346.22 K, Cone and plate viscometry	57.2 mPa·s
346.29 K, Cone and plate viscometry	56.9 mPa·s
346.97 K, Cone and plate viscometry	55.4 mPa·s
347.05 K, Cone and plate viscometry	55.1 mPa·s
347.72 K, Cone and plate viscometry	53.8 mPa·s
347.81 K, Cone and plate viscometry	53.7 mPa·s
348.46 K, Cone and plate viscometry	52.4 mPa·s
348.57 K, Cone and plate viscometry	52.3 mPa·s
349.19 K, Cone and plate viscometry	51.1 mPa·s
349.33 K, Cone and plate viscometry	50.8 mPa·s
349.94 K, Cone and plate viscometry	49.7 mPa·s
350.07 K, Cone and plate viscometry	49.4 mPa·s
350.69 K, Cone and plate viscometry	48.3 mPa·s
350.77 K, Cone and plate viscometry	48.2 mPa·s
351.42 K, Cone and plate viscometry	47 mPa·s
351.48 K, Cone and plate viscometry	47.2 mPa·s
352.16 K, Cone and plate viscometry	46 mPa·s
352.22 K, Cone and plate viscometry	46.3 mPa·s
352.91 K, Cone and plate viscometry	45.1 mPa·s
352.99 K, Cone and plate viscometry	45.2 mPa·s
353.15 K, Concentric cylinders viscometry	44.7 mPa·s
353.66 K, Cone and plate viscometry	43.7 mPa·s
353.75 K, Cone and plate viscometry	44.3 mPa·s
354.39 K, Cone and plate viscometry	42.6 mPa·s
354.48 K, Cone and plate viscometry	43 mPa·s
355.14 K, Cone and plate viscometry	41.9 mPa·s
355.2 K, Cone and plate viscometry	42 mPa·s
355.88 K, Cone and plate viscometry	40.9 mPa·s
355.92 K, Cone and plate viscometry	41.3 mPa·s
356.63 K, Cone and plate viscometry	40.2 mPa·s
356.66 K, Cone and plate viscometry	40.5 mPa·s
357.36 K, Cone and plate viscometry	39 mPa·s
357.39 K, Cone and plate viscometry	39.2 mPa·s
358.1 K, Cone and plate viscometry	37.6 mPa·s
358.11 K, Cone and plate viscometry	38 mPa·s
358.85 K, Cone and plate viscometry	36.5 mPa·s
358.86 K, Cone and plate viscometry	37 mPa·s
359.6 K, Cone and plate viscometry	35.6 mPa·s and 36.5 mPa·s
360.35 K, Cone and plate viscometry	34.8 mPa·s and 35.7 mPa·s
361.08 K, Cone and plate viscometry	34.6 mPa·s
361.09 K, Cone and plate viscometry	35 mPa·s
361.82 K, Cone and plate viscometry	33.9 mPa·s and 34 mPa·s
362.57 K, Cone and plate viscometry	32.8 mPa·s
362.58 K, Cone and plate viscometry	32.5 mPa·s
363.15 K, Concentric cylinders viscometry	32.1 mPa·s
363.31 K, Cone and plate viscometry	32.1 mPa·s
363.32 K, Cone and plate viscometry	31.9 mPa·s
364.05 K, Cone and plate viscometry	31.3 mPa·s and 31.4 mPa·s
364.79 K, Cone and plate viscometry	31.1 mPa·s
364.8 K, Cone and plate viscometry	30.9 mPa·s
365.54 K, Cone and plate viscometry	29.7 mPa·s and 30.4 mPa·s
366.28 K, Cone and plate viscometry	29.6 mPa·s
366.29 K, Cone and plate viscometry	29.1 mPa·s
367.02 K, Cone and plate viscometry	28.7 mPa·s and 28.9 mPa·s
367.76 K, Cone and plate viscometry	27.9 mPa·s and 28.2 mPa·s
368.49 K, Cone and plate viscometry	27.6 mPa·s
368.51 K, Cone and plate viscometry	27.1 mPa·s
369.24 K, Cone and plate viscometry	27 mPa·s
369.26 K, Cone and plate viscometry	26.6 mPa·s
369.99 K, Cone and plate viscometry	26 mPa·s and 26.4 mPa·s
370.73 K, Cone and plate viscometry	25.4 mPa·s and 25.8 mPa·s
371.47 K, Cone and plate viscometry	25.2 mPa·s
371.49 K, Cone and plate viscometry	24.8 mPa·s
372.22 K, Cone and plate viscometry	24.8 mPa·s
372.23 K, Cone and plate viscometry	24.3 mPa·s
372.96 K, Cone and plate viscometry	24.3 mPa·s
372.97 K, Cone and plate viscometry	24.4 mPa·s
373.15 K, Concentric cylinders viscometry	24 mPa·s
373.71 K, Cone and plate viscometry	23.3 mPa·s and 23.7 mPa·s
374.44 K, Cone and plate viscometry	23.1 mPa·s
374.45 K, Cone and plate viscometry	22.9 mPa·s
375.19 K, Cone and plate viscometry	22.4 mPa·s and 22.6 mPa·s
375.94 K, Cone and plate viscometry	22.1 mPa·s and 22.3 mPa·s
376.68 K, Cone and plate viscometry	21.9 mPa·s
376.69 K, Cone and plate viscometry	22 mPa·s
377.41 K, Cone and plate viscometry	21.8 mPa·s
377.42 K, Cone and plate viscometry	21.6 mPa·s
378.16 K, Cone and plate viscometry	21.1 mPa·s
378.9 K, Cone and plate viscometry	20.7 mPa·s
378.91 K, Cone and plate viscometry	20.6 mPa·s
379.64 K, Cone and plate viscometry	20.3 mPa·s
379.65 K, Cone and plate viscometry	20.4 mPa·s
380.39 K, Cone and plate viscometry	19.7 mPa·s and 19.9 mPa·s
381.13 K, Cone and plate viscometry	19.6 mPa·s
381.14 K, Cone and plate viscometry	19.4 mPa·s
381.87 K, Cone and plate viscometry	19.2 mPa·s
381.88 K, Cone and plate viscometry	19 mPa·s
382.62 K, Cone and plate viscometry	18.5 mPa·s and 18.7 mPa·s
383.35 K, Cone and plate viscometry	18.2 mPa·s
383.36 K, Cone and plate viscometry	18.4 mPa·s
384.1 K, Cone and plate viscometry	18.2 mPa·s
384.11 K, Cone and plate viscometry	17.9 mPa·s
384.85 K, Cone and plate viscometry	17.7 mPa·s and 17.9 mPa·s
385.6 K, Cone and plate viscometry	17.4 mPa·s and 17.6 mPa·s
386.33 K, Cone and plate viscometry	16.8 mPa·s
386.34 K, Cone and plate viscometry	17 mPa·s
387.07 K, Cone and plate viscometry	16.6 mPa·s
387.08 K, Cone and plate viscometry	16.8 mPa·s
387.82 K, Cone and plate viscometry	16.5 mPa·s and 16.7 mPa·s
388.56 K, Cone and plate viscometry	16.6 mPa·s
388.57 K, Cone and plate viscometry	16.5 mPa·s
389.3 K, Cone and plate viscometry	16 mPa·s
389.32 K, Cone and plate viscometry	16.2 mPa·s
390.04 K, Cone and plate viscometry	15.8 mPa·s
390.05 K, Cone and plate viscometry	15.6 mPa·s
390.79 K, Cone and plate viscometry	15.3 mPa·s and 15.5 mPa·s
391.53 K, Cone and plate viscometry	15.4 mPa·s
391.54 K, Cone and plate viscometry	15.1 mPa·s
392.26 K, Cone and plate viscometry	14.7 mPa·s
392.28 K, Cone and plate viscometry	15.2 mPa·s
393.01 K, Cone and plate viscometry	14.6 mPa·s
393.02 K, Cone and plate viscometry	14.8 mPa·s
393.75 K, Cone and plate viscometry	14.5 mPa·s
393.76 K, Cone and plate viscometry	14.3 mPa·s
394.5 K, Cone and plate viscometry	14.3 mPa·s
394.51 K, Cone and plate viscometry	14.2 mPa·s
395.25 K, Cone and plate viscometry	14.1 mPa·s
395.26 K, Cone and plate viscometry	14 mPa·s
395.99 K, Cone and plate viscometry	13.9 mPa·s and 14 mPa·s
396.73 K, Cone and plate viscometry	13.7 mPa·s and 13.9 mPa·s
397.47 K, Cone and plate viscometry	13.5 mPa·s
397.48 K, Cone and plate viscometry	13.5 mPa·s
398.22 K, Cone and plate viscometry	13.2 mPa·s and 13.4 mPa·s
398.96 K, Cone and plate viscometry	13 mPa·s
398.97 K, Cone and plate viscometry	13.1 mPa·s
399.7 K, Cone and plate viscometry	12.9 mPa·s and 13 mPa·s
400.44 K, Cone and plate viscometry	12.9 mPa·s
400.45 K, Cone and plate viscometry	12.7 mPa·s
401.19 K, Cone and plate viscometry	12.6 mPa·s and 12.8 mPa·s
401.93 K, Cone and plate viscometry	12.3 mPa·s
401.94 K, Cone and plate viscometry	12.6 mPa·s
402.67 K, Cone and plate viscometry	12.2 mPa·s and 12.4 mPa·s
403.42 K, Cone and plate viscometry	12.1 mPa·s and 12.3 mPa·s
404.16 K, Cone and plate viscometry	12 mPa·s and 12.1 mPa·s
404.9 K, Cone and plate viscometry	11.7 mPa·s
404.91 K, Cone and plate viscometry	12 mPa·s
405.64 K, Cone and plate viscometry	11.5 mPa·s and 11.6 mPa·s
406.39 K, Cone and plate viscometry	11.3 mPa·s and 11.5 mPa·s
407.13 K, Cone and plate viscometry	11.2 mPa·s and 11.4 mPa·s
407.87 K, Cone and plate viscometry	11.3 mPa·s
407.88 K, Cone and plate viscometry	11.1 mPa·s
408.62 K, Cone and plate viscometry	10.6 mPa·s and 10.7 mPa·s
409.35 K, Cone and plate viscometry	10.4 mPa·s and 10.5 mPa·s
410.1 K, Cone and plate viscometry	10.3 mPa·s and 10.4 mPa·s
410.84 K, Cone and plate viscometry	10.3 mPa·s
410.85 K, Cone and plate viscometry	10.2 mPa·s
411.58 K, Cone and plate viscometry	10.1 mPa·s
411.59 K, Cone and plate viscometry	10.2 mPa·s
412.33 K, Cone and plate viscometry	10 mPa·s and 10.1 mPa·s
413.07 K, Cone and plate viscometry	9.6 mPa·s and 9.9 mPa·s
413.82 K, Cone and plate viscometry	9.6 mPa·s and 9.7 mPa·s

Conditions	mass density	speed of sound [m/s]
333.15 K	1209.85 kg/m3 [middle of 4 runs]	1318.6
343.15 K	1202.43 kg/m3 [middle of 4 runs]	–
343.16 K	–	1296.1
353.15 K	1195.18 kg/m3 and 1195.41 kg/m3	–
363.15 K	1188.37 kg/m3 and 1188.53 kg/m3	–
373.15 K	1181.63 kg/m3	–
